According to patent publication US10711006B2, “Selective Bruton's tyrosine kinase inhibitor and use thereof” (HANGZHOU HERTZ PHARMACEUTICAL CO., LTD., priority 2016, dated 2020):

Key:
[1] = test system: human diffuse large B lymphoma (TMD-8); experiment: In-vitro tumor cell proliferation inhibition (CCK-8), TMD-8; settings: TMD8, 72 h, read-out: Tumor cell proliferation inhibitory activity (IC50, nM) TMD-8
Method: (§1) The in-vitro antitumor activity assay was carried out on the synthesized compound by using different solid tumors and leukemia cell lines:
(§2) Cell lines: human lung cancer cell (A549), human mantle cell lymphoma (MINO), diffuse giant B-cell lymphoma (OCI-LY10), and human diffuse large B lymphoma (TMD-8).
(§3) Preparation method of the drug: the drug was dissolved in DMSO to make a 10 mM stock solution, and then the stock solution was diluted in a certain ratio to obtain 5 different concentrations (test concentration 100×). In-vitro culture of tumor cells:
(§4) The tumor cells A549, MINO, OCI-LY10, and TMD-8 were seeded in a 96-well plate at 4000 cells/200 μL/well and then incubated overnight at 37° C. in a 5% CO2 cell culture incubator. 2 μL of the compound was added to each well to final concentrations of 50 μM, 10 μM, 2 μM, 0.4 μM, and 0.08 μM and then incubated for 72 hours at 37° C. in a 5% CO2 cell incubator, with DMSO (2%) as a control group. […] Wells loaded with the corresponding amount of cell culture fluid the and CCK-8 solution but no cells were considered as blank controls. The absorbance (OD value) was measured at 450 nm using a microplate reader, and the obtained data was used to calculate IC50.

BTK Kinase = BTK Kinase (Homo sapiens (Human), UniProt Q06187); experiment: In-vitro Btk kinase inhibitory activity assay; format: biochemical
Chain of BTK Kinase (Q06187 whole entry): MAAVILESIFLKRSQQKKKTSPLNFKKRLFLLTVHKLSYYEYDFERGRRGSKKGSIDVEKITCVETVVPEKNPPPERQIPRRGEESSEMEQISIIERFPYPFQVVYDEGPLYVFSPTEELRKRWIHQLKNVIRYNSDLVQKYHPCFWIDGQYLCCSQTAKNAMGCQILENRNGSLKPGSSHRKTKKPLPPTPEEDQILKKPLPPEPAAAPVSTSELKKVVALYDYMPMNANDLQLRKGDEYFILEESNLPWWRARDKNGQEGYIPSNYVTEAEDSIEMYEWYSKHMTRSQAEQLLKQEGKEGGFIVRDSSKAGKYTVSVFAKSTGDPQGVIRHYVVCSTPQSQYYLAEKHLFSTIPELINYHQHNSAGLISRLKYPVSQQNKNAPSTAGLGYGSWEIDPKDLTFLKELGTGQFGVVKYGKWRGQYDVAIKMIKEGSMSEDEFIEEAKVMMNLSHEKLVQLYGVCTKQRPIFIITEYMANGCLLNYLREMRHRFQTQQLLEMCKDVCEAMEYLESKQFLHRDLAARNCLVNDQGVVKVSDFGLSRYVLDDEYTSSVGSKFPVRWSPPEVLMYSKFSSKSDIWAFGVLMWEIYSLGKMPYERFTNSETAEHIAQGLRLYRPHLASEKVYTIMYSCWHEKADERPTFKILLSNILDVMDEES
Method: In-Vitro Btk Kinase Inhibitory Activity Assay for Compounds of the Present Invention:
10 μL of the 50× drug stock solution was added to a 96-well plate and then 90 μL of a 1× Kinase Buffer was added and the 96-well plate was shaken for 10 minutes on a shaker. From each well of the 96-well plate, 5 μL of the drug solution was taken and then transferred to a 384-well plate which was provided with 2 duplicate wells.
Preparation of a 2.5× Kinase Buffer: an enzyme was added to the 1× kinase base buffer.
Prepare a 2.5× oligopeptide solution: FAM-labeled oligopeptide and ATP were added to the 1× kinase base buffer.
10 μL of the 2.5× Kinase Buffer was added to the 384-well plate loaded with 5 μL of the drug solution and incubation was then carried out for 10 minutes at room temperature. 10 μL of the 2.5× oligopeptide solution was added to the 384-well plate and incubation was then carried out for 1 hour at 28° C. The reaction was stopped by adding 25 μL of a stop buffer. The readings were recorded and the inhibition rate of the compound on the enzyme was calculated. The IC50 of BTK kinase was calculated by fitting.

[2] = test system: diffuse giant B-cell lymphoma (OCI-LY10); experiment: In-vitro tumor cell proliferation inhibition (CCK-8), OCI-LY10; settings: Homo sapiens, OCI-Ly10, 72 h, read-out: Tumor cell proliferation inhibitory activity (IC50, nM) OCI-LY10
Method: as §1, §2, §3, §4

[3] = test system: human lung cancer cell (A549); experiment: In-vitro tumor cell proliferation inhibition (CCK-8), A549; settings: A549, 72 h, read-out: Tumor cell proliferation inhibitory activity (IC50, μM) A549
Method: as §1, §2, §3, §4

[4] = test system: human mantle cell lymphoma (MINO); experiment: In-vitro tumor cell proliferation inhibition (CCK-8), MINO; settings: 72 h, read-out: Tumor cell proliferation inhibitory activity (IC50, μM) MINO
hERG potassium channel = hERG potassium channel (Homo sapiens (Human), UniProt Q12809); experiment: hERG potassium channel inhibitory activity, manual patch clamp in CHO cells; format: cell-based; settings: CHO cells stably expressing hERG, whole-cell patch clamp
Chain of hERG potassium channel (Q12809 whole entry): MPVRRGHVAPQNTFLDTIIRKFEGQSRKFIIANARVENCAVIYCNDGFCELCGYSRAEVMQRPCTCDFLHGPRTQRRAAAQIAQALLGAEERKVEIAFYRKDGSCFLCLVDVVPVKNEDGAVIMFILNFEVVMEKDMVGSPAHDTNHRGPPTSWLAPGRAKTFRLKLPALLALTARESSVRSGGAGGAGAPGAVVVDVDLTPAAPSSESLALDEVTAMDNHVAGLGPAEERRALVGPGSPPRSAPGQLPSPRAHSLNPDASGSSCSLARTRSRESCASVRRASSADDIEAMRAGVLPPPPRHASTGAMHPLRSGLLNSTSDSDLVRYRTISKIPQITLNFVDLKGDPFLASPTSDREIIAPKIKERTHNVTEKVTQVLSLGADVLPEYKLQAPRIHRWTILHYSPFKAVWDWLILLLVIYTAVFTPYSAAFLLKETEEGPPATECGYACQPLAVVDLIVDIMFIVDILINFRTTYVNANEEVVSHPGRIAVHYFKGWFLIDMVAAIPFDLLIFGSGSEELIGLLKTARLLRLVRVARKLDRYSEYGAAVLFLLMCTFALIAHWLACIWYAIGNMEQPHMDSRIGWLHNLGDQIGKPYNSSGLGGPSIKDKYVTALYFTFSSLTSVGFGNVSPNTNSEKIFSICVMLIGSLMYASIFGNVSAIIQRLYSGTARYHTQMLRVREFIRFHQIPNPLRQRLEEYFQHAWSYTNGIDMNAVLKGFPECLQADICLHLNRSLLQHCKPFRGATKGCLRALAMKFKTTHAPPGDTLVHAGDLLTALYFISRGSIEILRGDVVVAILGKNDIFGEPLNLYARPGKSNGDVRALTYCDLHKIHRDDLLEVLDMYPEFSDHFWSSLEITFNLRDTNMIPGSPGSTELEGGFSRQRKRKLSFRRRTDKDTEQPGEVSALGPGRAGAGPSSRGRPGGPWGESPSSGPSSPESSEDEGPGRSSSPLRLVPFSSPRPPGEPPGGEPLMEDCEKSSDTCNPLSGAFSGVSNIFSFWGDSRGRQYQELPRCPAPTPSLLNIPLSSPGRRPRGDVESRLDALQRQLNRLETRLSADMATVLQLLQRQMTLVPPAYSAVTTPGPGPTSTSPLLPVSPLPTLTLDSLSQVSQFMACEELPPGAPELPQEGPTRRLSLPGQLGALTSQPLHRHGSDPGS
Method: The cells used in this experiment were CHO cell lines transfected with HergCdna and stably expressing Herg channels (supplied by Sophion Bioscience, Denmark). The cells were cultured in a medium containing the following components (all from Invitrogen): Ham's F12 medium, 10% (v/v) inactivated fetal bovine serum, 100 μg/ml hygromycin B, 100 μg/ml Geneticin. […] 24 to 48 hours before an electrophysiological experiment, CHO Herg cells were transferred to circular slides placed in the culture dishes and grow with the same culture liquid under the same culture conditions as above. The density of CHO Herg cells on each circular slide was required to reach such a value that most cells were independent and stand alone.
2. Treatment and Dilution of a Compound
Before the test, the compound was first diluted with DMSO at gradient to make stock solutions with concentrations of 10, 3, 1, 0.3 and 0.1 Mm and the stock solutions were then diluted with extracellular fluid to a final Mm test concentration. Except that the DMSO concentration in the 30 Mm compound test solution was 0.3%, the final concentration of DMSO in each of the compound solutions with other concentrations was 0.1%. The test concentration of a positive control Cisapridewas 0.1 Mm. All compound solutions were conventionally sonicated and shaken for 5 to 10 minutes to ensure complete dissolution of the compound.
3. Electrophysiological Recording System and Data Analysis
This experiment uses a manual patch clamp system (HEKA EPC-10 signal amplifier and digital conversion system, purchased from HEKA Electronics, Germany) for the recording of whole cell currents. The circular slides with CHO Herg cells growing on the surfaces were placed in an electrophysiological recording slot under an inverted microscope. The extracellular fluid was used for continuous perfusion in the recording slot (approximately lml per minute). The experimental procedure uses a conventional whole-cell patch clamp current recording technique. Unless otherwise stated, the experiment was carried out at regular room temperature ([…]). The cells were clamped at a voltage of −80 Mv. The cell clamp voltage was depolarized to +20 Mv to activate the Herg potassium channel, and 5 seconds later, it was clamped to −50 Mv to eliminate inactivation and generate tail current. The peak of the tail current was used as the value of the Herg current. After the hERG potassium current recorded in the above step was stabilized under the continuous extracellular fluid perfusion in the recording slot, the drug to be tested can be superimposed to the perfusion until the inhibitory effect of the drug on the hERG current reaches a steady state. Generally, the criterion for determine whether or not the stable state was reached was that the recent three consecutive current recording lines were coincident. After the steady state was reached, extracellular fluid perfusion was carried out for flushing until the hERG current returns to the magnitude before the drug was added. One cell may be used for testing one or more drugs, or multiple concentrations of the same drug, and flushing with extracellular fluid was carried out between tests of different drugs. Cisapride (purchased from Sigma) was used in the experiment as a positive control to ensure that the cells used were of normal quality. The test data was analyzed by data analysis software provided by HEKA Patchmaster, Microsoft Excel and Graphpad Prism.

[5] = test system: Mino subcutaneous xenograft tumor; experiment: In-vivo pharmacodynamic study on Mino subcutaneous xenograft tumor models; settings: CB17 SCID mice, intragastric, twice a day
Method: In CB17 SCID mice, 0.2 mL of cell suspension containing 5×10^6 Mino cells was subcutaneously inoculated into the right back of each mouse, and when the mean tumor volume reaches approximately 139.94 mm3 (day 26 after inoculation), group administration was started (intragastric administration, twice a day, 14 days in total). Animals were monitored daily for health and mortality, and tumor diameters were measured twice a week using vernier calipers to see if tumor growth could be inhibited, delayed, or cured.

[6] = test system: arthritis induced by anti-collagen antibodies and lipopolysaccharides; experiment: Rheumatoid arthritis model induced by anti-collagen antibodies and lipopolysaccharides; format: in vivo, Balb/c mice
Method: In Balb/c mice, arthritis was induced by administration of anti-collagen antibodies and lipopolysaccharides (Nandakumar et al., Am. J. Pathol. 2003, 163: 1827-1837).
The specific method was as follows: On Day 0, female Balb/c mice were intravenously injected with anti-type II collagen ChemicomAb mixture in a dose of 100 mg/kg, and on Day 1, lipopolysaccharide was intraperitoneally injected in a dose of 1.25 mg/kg. From Day 2 to Day 12, Compounds 15a, 17a, 24a and 24e were orally administered once a day in a dose of 10 mg/kg. On Day 13 after abdominal anesthesia, […] of blood was taken from the femoral artery and centrifuged at 3000 r/min for 20 minutes, serum was taken to detect IL-1β with a test kit, and related tissue samples were observed.

[7] = Oral pharmacokinetic experiment in SD rats; format: in vivo; settings: mean n = 3
Method: SD rats were used as experimental animals and were subjected to intragastric administration in a dose of 10 mg/kg and tail-vein intravenous injection in a dose of 2 mg/kg. The tail-vein blood sampling time points in the intragastric administration were 0.17, 0.33, 0.5, 1, 1.5, 2, 4, 6, 8, 12, and 24 hours; the blood sampling time points in the intravenous administration were 0.05, 0.1, 0.17, 0.5, 1, 2, 4, 6, 8, 12, and 24 hours. 0.3 ml of whole blood was taken, and 0.1 ml of plasma after centrifugation was taken and analyzed by LC-MS.

[8] = rat, plasma, oral (intragastric) 10 mg/kg

SMILES	IC50 [1]	IC50 (BTK Kinase)	IC50 [2]	IC50 [3]	IC50 [4]	AUC0-C(ng/h/mL) ([7]; oral (intragastric) 10 mg/kg)	AUC0-t (ng/h/mL) ([7]; oral (intragastric) 10 mg/kg)	bioavailability ([7]; rat, plasma, oral 10 mg/kg vs intravenous 2 mg/kg)	Cmax [7, 8]	Tmax [7, 8]	half-life [7, 8]	IC50 (hERG potassium channel)	TGI*(14 days) (%) calculated on the basis of tumor volume [5]	TGI**(14 days) (%) calculated on the basis of tumor weight [5]	level of IL-1β in serum (in words) ([6]; 10 mg/kg orally once a day, versus model group)	IL-1β ([6]; serum on Day 13, 10 mg/kg orally once a day Day 2 to Day 12)	inflammatory cell infiltration, synovial hyperplasia, inflammatory granulation tissue formation, necrotic tissue ([6]; tissue samples after treatment, versus model group)
C=CC(=O)N1CCC[C@@H](n2nc(-c3ccc(Oc4cccc(F)c4F)nc3F)c3c(N)ncnc32)C1 [Compound 17i, (R)-1-(3-(4-amino-3-(6-(2,3-difluorophenoxy)-2-fluoropyridin-3-yl)-1H-pyrazolo[3,4-d]pyrimidin-1-yl)piperidin-1-yl)prop-2-en-1-one]	3.8 nM	1.2 nM	2.04 nM	1.02 µM	7.65 µM												
C=CC(=O)N1CCC[C@@H](n2nc(-c3cnc(Oc4ccccc4)nc3)c3c(N)ncnc32)C1 [Compound 18, (R)-1-(3-(4-amino-3-(2-phenoxypyrimidin-5-yl)-1H-pyrazolo[3,4-d]pyrimidin-1-yl)piperidin-1-yl)prop-2-en-1-one]	8.14 nM	10.3 nM	32.1 nM	19.5 µM	20.3 µM												
C=CC(=O)N1CCC[C@@H](n2nc(-c3ccc(Oc4ccccc4)cn3)c3c(N)ncnc32)C1 [Compound 19, (R)-1-(3-(4-amino-3-(5-phenoxypyridin-2-yl)-1H-pyrazolo[3,4-d]pyrimidin-1-yl)piperidin-1-yl)prop-2-en-1-one]	10.2 nM	5.3 nM	13.6 nM	4.52 µM	7.12 µM							10600 nM					
C=CC(=O)N1CC[C@@H](n2nc(-c3ccc(Oc4ccccc4)nc3)c3c(N)ncnc32)C1 [Compound 23a, (R)-1-(3-(4-amino-3-(6-phenoxypyridin-3-yl)-1H-pyrazolo[3,4-d]pyrimidin-1-yl)pyrrolidin-1-yl)prop-2-en-1-one]	28.3 nM	4.4 nM	6.91 nM	2.83 µM	9.19 µM							18200 nM					
C=CC(=O)N1CC[C@@H](n2nc(-c3ccc(Oc4cccc(F)c4F)nc3F)c3c(N)ncnc32)C1 [Compound 24e, (R)-1-(3-(4-amino-3-(6-(2,3-difluorophenoxy)-2-fluoropyridin-3-yl)-1H-pyrazolo[3,4-d]pyrimidin-1-yl)pyrrolidin-1-yl)prop-2-en-1-one]	7.13 nM	1.8 nM	4.02 nM	1.93 µM	8.98 µM	1620 ng·h/mL	1600 ng·h/mL	46.1%	1440 ng/mL	0.25 h	3.57 h		68.04%	62.16%	significantly reduce	20.45 ± 5.1 ng/L	significantly improved
CC#CC(=O)N1CC[C@@H](n2nc(-c3ccc(Oc4ccccc4)nc3)c3c(N)ncnc32)C1 [Compound 25a, (R)-1-(3-(4-amino-3-(6-phenoxypyridin-3-yl)-1H-pyrazolo[3,4-d]pyrimidin-1-yl)pyrrolidin-1-yl)but-2-yn-1-one]	5.18 nM	25.1 nM	5.13 nM	5.3 µM	6.5 µM							13600 nM					

Second part, led by results:

IC50 [1]	IC50 (BTK Kinase)	IC50 [2]	IC50 [3]	IC50 [4]	AUC0-C(ng/h/mL) ([7]; oral (intragastric) 10 mg/kg)	AUC0-t (ng/h/mL) ([7]; oral (intragastric) 10 mg/kg)	bioavailability ([7]; rat, plasma, oral 10 mg/kg vs intravenous 2 mg/kg)	Cmax [7, 8]	Tmax [7, 8]	half-life [7, 8]	SMILES	IC50 (hERG potassium channel)	TGI*(14 days) (%) calculated on the basis of tumor volume [5]	TGI**(14 days) (%) calculated on the basis of tumor weight [5]	level of IL-1β in serum (in words) ([6]; 10 mg/kg orally once a day, versus model group)	IL-1β ([6]; serum on Day 13, 10 mg/kg orally once a day Day 2 to Day 12)	inflammatory cell infiltration, synovial hyperplasia, inflammatory granulation tissue formation, necrotic tissue ([6]; tissue samples after treatment, versus model group)
2.37 nM	9.5 nM	3.58 nM	2.88 µM	8.19 µM							C=CC(=O)N1CCC[C@@H](n2nc(-c3ccc(Oc4ccc(F)cc4)nc3)c3c(N)ncnc32)C1 [Compound 15b, (R)-1-(3-(4-amino-3-(6-(4-fluorophenoxypyridine)-3-yl)-1H-pyrazolo[3,4-d]pyrimidin-1-yl)piperidin-1-yl)prop-2-en-1-one]	11600 nM					
4.99 nM	6.5 nM	3.19 nM	8.21 µM	8.35 µM							C=CC(=O)N1CCC[C@@H](n2nc(-c3ccc(Oc4ccc(C)cc4)nc3)c3c(N)ncnc32)C1 [Compound 15i]	13500 nM					
15.2 nM	18.6 nM	12.5 nM	7.7 µM	8.92 µM							CC/C=C/C(=O)N1CCC[C@@H](n2nc(-c3ccc(Oc4ccccc4)nc3)c3c(N)ncnc32)C1 [Compound 20a, (R)-1-(3-(4-amino-3-(6-phenoxypyridin-3-yl)-1H-pyrazolo[3,4-d]pyrimidin-1-yl)piperidin-1-yl) pent-2-en-1-one]	14800 nM					
